Test results from paper PMC3691235, “Discovery of a Novel Dual Fungal CYP51/Human 5-Lipoxygenase Inhibitor: Implications for Anti-Fungal Therapy” (PLoS ONE, 2013).
Where two headings read alike, the source gives them in different places.

Columns and labels:
[1] = target: T1, Human leukocyte 5-lipoxygenase (Homo sapiens, UniProt P09917); assay: Lipoxygenase UV-based inhibitor assay, 5-LOX; format: biochemical
T1 construct: made in house
T1 sequence (P09917 1-674): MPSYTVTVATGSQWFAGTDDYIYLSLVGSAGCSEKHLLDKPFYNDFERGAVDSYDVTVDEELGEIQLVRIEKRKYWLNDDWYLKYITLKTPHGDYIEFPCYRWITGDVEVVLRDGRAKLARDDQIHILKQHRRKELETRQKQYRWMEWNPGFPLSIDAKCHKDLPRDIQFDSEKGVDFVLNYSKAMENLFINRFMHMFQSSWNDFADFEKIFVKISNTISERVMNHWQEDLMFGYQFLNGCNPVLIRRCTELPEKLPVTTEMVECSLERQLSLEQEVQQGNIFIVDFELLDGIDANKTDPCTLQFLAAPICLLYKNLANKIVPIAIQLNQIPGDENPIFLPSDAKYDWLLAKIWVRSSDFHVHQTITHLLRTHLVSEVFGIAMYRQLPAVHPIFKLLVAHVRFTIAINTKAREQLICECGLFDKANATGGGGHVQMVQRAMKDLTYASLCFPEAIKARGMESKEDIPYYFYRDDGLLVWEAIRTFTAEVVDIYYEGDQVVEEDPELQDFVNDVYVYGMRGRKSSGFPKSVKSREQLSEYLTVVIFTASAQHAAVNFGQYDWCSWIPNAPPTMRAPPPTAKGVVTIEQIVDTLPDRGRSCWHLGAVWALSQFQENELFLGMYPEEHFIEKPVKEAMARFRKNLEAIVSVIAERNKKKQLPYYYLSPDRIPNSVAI
Protocol: Human leukocyte 5-lipoxygenase was expressed as a non-tagged protein and used as a crude ammonium sulfate protein fraction, as published previously.
Inhibitor potencies were evaluated through use of the standard UV-based inhibitor assay. The initial rates were determined by following the formation of the conjugated diene product at 234 nm (ε = 25,000 M^−1 cm^−1) with a Perkin-Elmer Lambda 40 UV/Vis spectrophotometer at one substrate concentration and varying inhibitor concentrations. All reactions were 2 mL in volume and constantly stirred using a magnetic stir bar at room temperature (23°C), with the enzyme specific buffer conditions outlined in Table 1. The substrate used for the various isozymes was arachidonic acid (AA) for 5-LOX, 12-LOX, and 15-LOX-2 and linoleic acid (LA) for 15-LOX-1, where concentrations were quantitatively determined by allowing the enzymatic reaction to go to completion. IC50 values were obtained by determining the initial rate at various inhibitor concentrations and plotting them against inhibitor concentration, followed by a hyperbolic saturation curve fit. The data used for the saturation curves were performed in duplicate or triplicate, depending on the quality of the data. […] Inhibitors were stored at −20°C in DMSO. […] The solvent isotope effect of the inhibitor IC50 was investigated utilizing the same conditions and methods as stated above. The pH of the buffered D2O was determined as reported previously.

Ovine COX-1 = target: T2, Ovine COX-1 (Ovis aries, UniProt P05979); assay: Cyclooxygenase assay (oxygen electrode), COX-1; format: biochemical
T2 construct: purchased Cayman chemical 60100
T2 sequence (P05979 25-600): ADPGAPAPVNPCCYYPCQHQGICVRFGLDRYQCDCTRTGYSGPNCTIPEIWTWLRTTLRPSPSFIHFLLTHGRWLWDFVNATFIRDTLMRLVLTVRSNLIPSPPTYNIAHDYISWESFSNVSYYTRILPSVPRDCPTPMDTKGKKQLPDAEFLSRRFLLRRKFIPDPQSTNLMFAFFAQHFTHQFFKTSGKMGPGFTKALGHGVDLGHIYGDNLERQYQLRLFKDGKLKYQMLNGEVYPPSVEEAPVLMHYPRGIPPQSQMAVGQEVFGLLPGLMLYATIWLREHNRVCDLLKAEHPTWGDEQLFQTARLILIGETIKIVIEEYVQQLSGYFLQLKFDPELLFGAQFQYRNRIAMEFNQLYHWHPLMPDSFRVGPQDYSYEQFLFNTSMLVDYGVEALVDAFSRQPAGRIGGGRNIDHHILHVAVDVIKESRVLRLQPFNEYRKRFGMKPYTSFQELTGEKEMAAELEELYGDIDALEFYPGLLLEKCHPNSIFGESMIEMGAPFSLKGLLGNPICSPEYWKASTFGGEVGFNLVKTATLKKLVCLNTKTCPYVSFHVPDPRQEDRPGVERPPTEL
Protocol: Ovine COX-1 (Cat. No. 60100) and human COX-2 (Cat. No. 60122) were purchased from Cayman chemical. Approximately 2 µg of either COX-1 or COX-2 were added to buffer containing 100 µM AA, 0.1 M Tris-HCl buffer (pH 8.0), 5 mM EDTA, 2 mM phenol and 1 µM hematin at 37°C. Data was collected using a Hansatech DW1 oxygen electrode chamber, as described before. Inhibitor or vehicle were mixed with the respective COX in buffer within the electrode cell, the reaction was initiated by the addition of AA, followed by monitoring of rate of oxygen consumption. Ibuprofen, aspirin and indomethacin, and the carrier solvent, DMSO, were used as positive and negative controls, respectively.

[2] = test system: LTB4 synthesis in whole human blood; assay: Human blood LTB4 inhibition assay; format: cell-based; details: for inhibition at 10 µM: Homo sapiens, compounds at 10 µM, calcium ionophore stimulated, ELISA, error in parentheses
Protocol: Whole human blood was obtained from healthy volunteers from within the Student Health Center. These studies were approved by the UCSC Institutional Review Board (IRB) and informed consent was obtained from all donors before blood draw. The whole blood was dispensed in 150 µL samples followed by addition of inhibitor or control (vehicle, DMSO), and incubated for 15 min at 37°C. The mixture was then stimulated by introduction of the calcium ionophore, […], (freshly diluted from a 50 mM DMSO stock to 1.5 mM in Hanks balanced salt solution), and incubated for 30 min at 37°C. Samples were then centrifuged at 1,500 rpm (300 g) for 10 min at 4°C and the supernatant diluted between 20 and 50-fold (batch dependent) for LTB4 detection, using an ELISA detection kit (Cayman Chemicals Inc.).

[3] = UV-based assay, 10 µM AA, pH 7.3, crude enzyme, error = SD, read-out: 5-LOX IC50
[4] = 100 µM AA, pH 8.0, 37°C, oxygen consumption, read-out: COX-1 IC50
[5] = UV-based assay, read-out: 5-LOX IC50

Row | Compound | IC50 [1, 3] [nM] | IC50 (Ovine COX-1; [4]) [nM] | inhibition at 10 µM [2] [%] | increase in 5-LOX IC50 in D2O relative to H2O (solvent isotope effect) ([1]; D2O buffer vs H2O) [fold] | selectivity for 5-LOX over 12-LOX, 15-LOX-1, 15-LOX-2, COX-1 and COX-2 [1] | IC50 [1, 5] [nM] | greater potency than ketoconazole in whole blood ([2]; whole human blood) [fold] | IC50 [1] [nM] | IC50 (Ovine COX-1) [nM]
1 | CC(C)(C)OC(=O)N1CCN(c2ccc(NCc3ccc(-c4ccc(C#N)cc4)o3)cc2)CC1 [Compound 1] | 170 | > 50000 | ~50 |  |  |  |  |  | 
2 | CC(=O)N1CCN(c2ccc(NCc3ccc(-c4cccc(Cl)c4)o3)cc2)CC1 [Compound 13] | 520 | > 150000 | ~50 | 2.4 |  |  |  |  | 
3 | N#Cc1ccc(-c2ccc(CNc3ccc(N4CCCCC4)cc3)o2)cc1 [Compound 14] | 330 | > 150000 |  |  |  |  |  |  | 
4 | Cc1cc(C2CCCCC2)n(O)c(=O)c1 [ciclopirox, reference compound] | 11000 ± 1000 | > 50000 | 34 |  |  |  |  |  | 
5 | CC(=O)N1CCN(c2ccc(NCC3COC(Cn4ccnc4)(c4ccc(Cl)cc4Cl)O3)cc2)CC1 (centres unmarked) [ketaminazole (16), ketaminazole] | 700 | > 150000 | 45 |  | over 100 times | 700 | 2 |  | 
6 | CC(=O)N1CCN(c2ccc(OCC3COC(Cn4ccnc4)(c4ccc(Cl)cc4Cl)O3)cc2)CC1 (centres unmarked) [ketoconazole, reference compound] |  |  | 25 |  |  |  |  | > 50000 | > 50000
7 | CC[C@](O)(c1nnc(NCc2ccc3c(-c4ccc(F)cc4)cc(=O)oc3c2)o1)C(F)(F)F [setileuton, reference compound] |  |  | 100 |  |  | 60 ± 6 |  |  | 
